The test concerns the target MsbA (Escherichia coli, UniProt P60752). Briefly: isothermal titration calorimetry. It counts as binding. (ITC needs no label: the signal is the heat of the interaction.)

Structures are written as SMILES.

Our source for the Kd values is publication doi:10.1101/2021.06.15.448612v1 (biorxiv, 2021).

What is called Kd is a measure of binding affinity in units of concentration. The low end stands for a tighter complex, the high end for a looser complex.

MsbA, sequence (P60752 2-582): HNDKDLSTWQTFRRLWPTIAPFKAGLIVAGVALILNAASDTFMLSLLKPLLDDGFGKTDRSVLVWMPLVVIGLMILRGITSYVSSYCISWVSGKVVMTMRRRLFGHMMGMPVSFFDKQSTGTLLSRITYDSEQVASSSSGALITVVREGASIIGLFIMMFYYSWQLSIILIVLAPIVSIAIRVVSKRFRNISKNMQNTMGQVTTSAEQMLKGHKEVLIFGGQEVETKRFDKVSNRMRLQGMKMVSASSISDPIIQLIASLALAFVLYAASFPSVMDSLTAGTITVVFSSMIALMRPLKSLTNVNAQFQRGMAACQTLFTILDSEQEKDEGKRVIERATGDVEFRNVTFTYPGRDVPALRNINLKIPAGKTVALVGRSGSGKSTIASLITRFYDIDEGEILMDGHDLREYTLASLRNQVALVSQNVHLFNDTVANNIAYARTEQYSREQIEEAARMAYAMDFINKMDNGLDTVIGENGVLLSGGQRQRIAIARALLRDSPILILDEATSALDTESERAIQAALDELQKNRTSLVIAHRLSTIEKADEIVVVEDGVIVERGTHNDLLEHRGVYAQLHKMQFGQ

For the compound `Nc1ncnc2c1ncn2[C@@H]1O[C@H](COP(=O)(O)OP(=O)(O)NP(=O)(O)O)[C@@H](O)[C@H]1O` [AMP-PNP], the Kd worked out at 5.1 µM.
